Data: publication PMC4780272, “New Concept of the Biosynthesis of 4-Alkyl-L-Proline Precursors of Lincomycin, Hormaomycin, and Pyrrolobenzodiazepines: Could a γ-Glutamyltransferase Cleave the C–C Bond?” (Frontiers in Microbiology, 2016)

Biological target: T1, LmbW (Streptomyces lincolnensis, UniProt A9Y8T3)
T1 construct: gene SLINC_0255; lmbW amplified from LK6 cosmid, cloned in pET42b(+), produced in E. coli BL21(DE3), purified as described for LmbC
T1 sequence (A9Y8T3 1-350): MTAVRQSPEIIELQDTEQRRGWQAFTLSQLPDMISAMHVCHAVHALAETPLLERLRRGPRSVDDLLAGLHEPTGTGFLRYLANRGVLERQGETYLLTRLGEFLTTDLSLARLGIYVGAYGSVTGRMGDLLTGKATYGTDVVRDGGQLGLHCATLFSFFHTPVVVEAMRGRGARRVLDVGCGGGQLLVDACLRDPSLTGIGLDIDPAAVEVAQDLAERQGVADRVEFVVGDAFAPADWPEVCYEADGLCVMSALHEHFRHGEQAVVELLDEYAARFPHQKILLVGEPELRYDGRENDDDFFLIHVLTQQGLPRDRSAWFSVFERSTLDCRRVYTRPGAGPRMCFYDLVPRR
Assay: LC-MS of methylated product
Assay type: biochemical
Details: methyl donor; co-substrate 3 4 mM, S-adenosylmethionine 4 mM, glycine buffer 40 mM pH 9.5, 28°C, 1 h

With `C[S+](CC[C@H](N)C(=O)O)C[C@H]1O[C@@H](n2cnc3c(N)ncnc32)[C@H](O)[C@@H]1O` (stereo partly shown) [S-adenosylmethionine] the “LC-MS of methylated product” value was “In the reaction with LmbW and S-adenosylmethionine, we identified a product”.
